Broadly, the Kd is the concentration at which binding is half-saturated.

Structures are written as SMILES.

Experiment [1] deals with 3×3 ILL. Nature of the experiment: 2DCS selection of microarray-immobilized compounds with 32P-labeled 3×3 ILL, Hit-StARTS analysis of RNA-seq. In kind it is binding. As to conditions: Zobs >4. How it is done:
The interaction landscape for the ten representative DEL compounds emerging from the FACS screen were then defined by 2DCS (22). In 2DCS, small molecules are site-specifically conjugated to a microarray surface and then probed for binding to an RNA library under highly stringent conditions (FIGS. 2-B & S6). That is, the array is co-incubated with a radioactively labeled RNA library and an excess of competitor oligonucleotides that mimic regions common to all library members. […] To enable site-specific immobilization of compounds 1-10, a C-terminal alkyne handle was installed for CuAAC click (30) coupling to azide-displaying array surfaces. Installation of the alkyne was accomplished by coupling of bromoacetic acid onto rink amide resin followed by nucleophilic displacement with propargylamine prior to the synthesis of the SPDEL compounds (FIG. 2A).
All ten compounds bound to the 3×3 ILL under the highly stringent conditions described above, almost all dose-dependently (FIG. 2B). The RNAs bound to each small molecule were harvested, reverse transcribed into DNA, and sequenced by RNA-seq. The resulting data set was statistically analyzed by using High Throughput Structure-Activity Relationships Through Sequencing (Hit-StARTS) (31) in which the relative frequency of each selected RNA is compared to the frequency of that RNA in the starting library (pooled population comparison). (31) The statistical significance of the enrichment of selected RNAs is quantified by Zobs, which correlates with affinity and selectivity. (31) Here, a cut-off of Zobs >4 was employed, which was empirically determined from measured affinities via evaluation of compound 9 binding with potential RNA motifs extracted from the 2DCS (FIGS. 2-B, 13, & 14). […] This cut-off afforded, on average, 60±40 (range: 6-155) preferred, or privileged, RNA 3D folds for each compound. Compound 6 bound to largest number of RNA targets (n=155) while compound 9 bound the fewest (n=6) (FIG. 14). […]

In experiment [2] the test system is fully paired RNA (loop mutated to a base pair). Kind of experiment: Binding affinity by MST, Cy5-labeled fully paired RNA. How it is done:
(§1) Binding affinity measurements: Binding affinities were measured by microscale thermophoresis (MST), performed on a Monolith NT.115 system (NanoTemper Technologies) with Cy5-labeled RNAs. These RNAs include: the 5′GAG/3′CCC SEQ ID NO: 16 loop at pri-miR-27a's Drosha site (Sequence:/5′-Cy5/rCrUrGrArGrGrUrGrArArArCrArUrCrCrCrArG SEQ ID NO: 17; Dharmacon), a related internal loop not selected by 9. 5′CAG/3′GCC SEQ ID NO: 17 loop (Sequence:/5′-Cy5/rCrUrCrArGrGrUrGrArArArCrArUrCrCrGrArG SEQ ID NO: 16; Dharmacon), and an RNA in which the loop is mutated to a base pair (Sequence:/5-Cy5/rCrUrGrArGrGrUrGrArArArCrArUrCrUrCrArG SEQ ID NO: 16; Dharmacon).
(§2) Briefly, Cy5-labeled RNA (10 nM) was prepared in 1× Binding Buffer and folded by heating at 60° C. for 5 min and then slowly cooling to room temperature. After cooling, Tween-20 was added to a final concentration of 0.1% (v/v). Compound solutions were prepared separately in 20 μL of 1× Binding Buffer at a final concentration of 5 μM (1% (v/v) DMSO), followed by 1:1 serial dilutions in 1× Binding Buffer. RNA and compound solutions were then mixed 1:1 by volume to a total of 20 μL.
(§3) Samples were incubated for 20 min at room temperature and then loaded into premium capillaries (NanoTemper Tech, Cat #MO-K025). The following parameters were used for MST measurements: 5-20% LED power (adjusted to keep fluorescence intensity between 2000 and 8000), 80% MST power, Laser-On time=30 s, Laser-Off time=25 s. The resulting data were analyzed by calculating the change in thermophoresis as a function of compound concentration and fitted by Equation 1, a one site binding model, in NanoTemper Tech's MST analysis software to yield the dissociation constant (Kd):
(§4) Where F is the concentration of fluorescently labeled RNA; unbound and bound refer to the thermophoresis signal at completely unbound and bound state of RNA, respectively; c is the concentration of the compound; f (c) is the thermophoresis signal at compound concentration of c; and Kd is the dissociation constant.

Experiment [3] addresses 5′GAG/3′CCC loop at pri-miR-27a's Drosha site. Nature of the experiment: Binding affinity by microscale thermophoresis (MST), Cy5-labeled RNA. Set-up: species or system human. How it is done: as §1, §2, §3, §4
On the technique in general: In MST a laser heats a spot of the sample, and binding alters the fluorescence response.

For experiment [4], the system named is 5′CAG/3′GCC loop. Nature of the experiment: Binding affinity by MST, Cy5-labeled mutated loop RNA. Set-up: species or system human. As to conditions: mutated loop 5′CAG/3′GCC. How it is done: as §1
Briefly, Cy5-labeled RNA (10 nM) was prepared in 1× Binding Buffer and folded by heating at 60° C. for 5 min and then slowly cooling to room temperature. […]
Samples were incubated for 20 min at room temperature and then loaded into premium capillaries (NanoTemper Tech, Cat #MO-K025). The following parameters were used for MST measurements: 5-20% LED power (adjusted to keep fluorescence intensity between 2000 and 8000), 80% MST power, Laser-On time=30 s, Laser-Off time=25 s. The resulting data were analyzed by calculating the change in thermophoresis as a function of compound concentration and fitted by Equation 1, a one site binding model, in NanoTemper Tech's MST analysis software to yield the dissociation constant (Kd): […]

The subject of experiment [5] is pri-miR-27a. Kind of experiment: RT-qPCR of pri- and mature miR-27a in MDA-MB-231 TNBC cells. In kind it is cell-based, human. The following applies: MDA-MB-231, RT-qPCR. How it is done:
Cell lines. Compounds were tested in MDA-MB-231 TNBC cells (HTB-26, ATCC), LNCaP metastatic prostate cancer cells (gifted from Junli Luo lab), MCF-7 (HTB-22, ATCC) breast cancer cells, HeLa cervical adenocarcinoma cells (CCL-2, ATCC), and MCF-10a, a model of healthy breast epithelial cells (CRL-10317, ATCC).
Cell culture and compound treatment. All cells were maintained at 37° C. with 5% CO2. MDA-MB-231 and LNCaP cells were cultured in RPMI 1640 medium with L-glutamine & 25 mM HEPES (Corning) supplemented with 10% (v/v) fetal bovine serum (FBS; Sigma) and 1× (v/v) Antibiotic-Antimycotic solution (Corning). MCF-7 and HeLa cells were cultured in DMEM medium with 4.5 g/L glucose (Corning), supplemented with 10% FBS, 1× (v/v) Glutagro (Corning), and 1× (v/v) Antibiotic-Antimycotic solution. MCF10a cells were cultured in DMEM/F12 50/50 with L-glutamine & 15 mM HEPES (Corning), supplemented with 10% FBS, 20 ng/mL human epidermal growth factor (Pepro Tech Inc.), […] hydrocortisone (Pfaltz & Bauer), 100 ng/mL cholera toxin (Sigma-Aldrich), 10 μg/mL insulin (Sigma-Aldrich), and 1× (v/v) Antibiotic-Antimycotic solution.
MCF-10a cells were transfected with plasmids to express pri-miR-27a and mutant pri-miR-27a in 12- or 24-well plates with Lipofectamine 2000 per the manufacturer's protocol. For treatment of compounds, stocks were diluted in growth medium and added to cells for 48 h. The miRCURY miR-27a LNA inhibitor (QIAGEN, Cat #339121) was used as a positive control by diluting in growth medium to a final concentration of 1 nM. The miRCURY LNA Negative Control (QIAGEN, Cat #YI00199007-DDA) was used as a negative control, which has also diluted in growth medium to a final concentration of 1 nM.
Analysis of mRNA abundance: Each cell line was grown as a monolayer in 12- or 24-well plates and treated as described in “Cell culture and compound treatment”. After 48 h, the cells were lysed, and total RNA was harvested using a Zymo Quick RNA Miniprep Kit per the manufacturer's protocol. To measure the abundance of mature miRNAs, approximately 250 ng of total RNA was reverse transcribed using the High Flex Buffer provided in a miScript II RT Kit (Qiagen) per the manufacturer's protocol (10 μL total reaction volume). For pri-miRNAs and mRNA, approximately 300 ng of total RNA was reverse transcribed using a qScript cDNA synthesis kit (10 μL total reaction volume, Quanta BioSciences). For all types of RNAs, 2 μL of the RT reaction was used for qPCR using SYBR Green Master Mix and a QuantStudio™ 5 Real-Time PCR System. Relative abundance of mature miRNAs was calculated by normalizing to RNU6, and relative abundance for pri-miRNAs and mRNAs was calculated by normalizing to 18S ribosomal RNA, using the […]. (12)
(In qPCR the cycle at which signal appears reflects the starting amount.)

For the compound `C#CCN(CC(N)=O)C(=O)C(CC(C)C)N1CC[C@H](NC(=O)[C@@H]2C[C@H](N)CN2C(=O)c2c[nH]c3ccc(Cl)cc23)C1=O` (some centres unmarked) [Compound 3], in experiment [1], the “number of RNA motifs bound that are unique to the compound” value worked out at 41.

Turning to `C#CCN(CC(N)=O)C(=O)C(CC(C)C)N1CC[C@H](NC(=O)[C@@H]2C[C@@H](N)CN2C(=O)c2c[nH]c3ccc(Cl)cc23)C1=O` (some centres unmarked) [Compound 4], the “number of RNA motifs bound that are unique to the compound” value in experiment [1] is recorded as 2.

On to `C#CCN(CC(N)=O)C(=O)C1CCN1C(=O)C1CC(N)CN1C(=O)c1ccccc1C(=O)N1CCOCC1` (centres unmarked) [Compound 5], for which, in experiment [2], the saturable binding entry is recorded as “Saturable binding was not observed”. This compound also showed a Kd in experiment [3] of 700 ± 100 nM.

Regarding `C#CCN(CC(N)=O)C(=O)C[C@H](Cc1c[nH]c2ccccc12)NC(=O)[C@@H]1C[C@@H](NC(=O)Cn2c(=O)[nH]c3ccccc3c2=O)CN1` [Compound 10], the saturable binding result in experiment [2] is on record as “binds to none of the three RNAs”. The binding result in experiment [4] and in experiment [3] was “binds to none of the three RNAs” throughout. Further, the “inhibition of miR-27a (comparison of 5, 7, 9, 10)” value in experiment [5] is “inactive”.
